# Legend:
# [1] = system: A2058 cells (EGFR-)
# [2] = system: A431 cells (EGFR++/HER2+/-/CD71+)
# [3] = system: HeLa cells (EGFR+/-); assay: Cell killing / cell viability, HeLa cells
# [4] = system: HSP27 mRNA in A2058 cells (EGFR-); assay: HSP27 gene silencing in A2058 cells; type: cell-based, human; conditions: titrated + fixed 4000 nM SO1861-EMCH, nM of HSP27BNA or of conjugate
# Description: (§1) Cells were seeded in DMEM (PAN-Biotech GmbH) supplemented with 10% fetal bovine serum (PAN-Biotech GmbH) and 1% penicillin/streptomycin (PAN-Biotech GmbH), in a 96 well plate at 5,000 c/w in 100 μL/well and incubated overnight at 37° C. and 5% CO2. The next day samples were prepared in DMEM and cells were treated.
# (§2) RNA isolation and Qper analysis was performed according to standard procedures and protocols.
# [5] = system: HSP27 mRNA in A431 cells (EGFR++); assay: HSP27 gene silencing in A431 cells; type: cell-based, human
# Description: as §1, §2
# [6] = system: SK-BR-3, JIMT-1, MDA-MB-468, A431, CaSki, HeLa, A2058; assay: Control treatments, relative cell viability on all cell lines; type: cell-based, human; conditions: wide range of toxin concentrations, up to 100.000 pM
compound,measurement,setting,value
CC(=O)OC1C(C)OC(OC2C(C)OC(OC(=O)[C@]34CCC(C)(C)CC3C3=CCC5[C@@]6(C)CC[C@H](OC7OC(C(=O)O)C(O)C(OC8OCC(O)C(O)C8O)C7OC7OC(CO)C(O)C(O)C7O)[C@@](C)(C=O)C6CC[C@@]5(C)[C@]3(C)C[C@H]4O)C(OC3OC(C)C(OC4OCC(O)C(OC5OC(CO)C(O)C(O)C5O)C4O)C(O)C3O)C2O)C(O)C1OC1OCC(O)C(O)C1O (some centres unmarked) [SO1861],IC50 cell killing,"[1]; substance alone, no partner",strong cell viability reduction
same,IC50 cell killing,"[2]; substance alone, no partner",strong cell viability reduction
same,IC50 cell viability (general toxicity),"[3]; substance alone, in absence of EGFdianthin",strong cell viability reduction
"HSP27BNA: antisense BNA oligo targeting HSP27 mRNA, sequence 5′-GGCacagccagtgGCG-3′ (antisense GGCACAGCCAGTGGCG; BNA modifications)",IC50,[4],10 nM
same,IC50,[5]; titrated + fixed 28.6 nM or 77 nM cetuximab-(Cys-L-SO1861)^3.9,10 nM
same,IC50,"[5]; titrated + fixed 4000 nM SO1861-EMCH, nM of HSP27BNA or of conjugate",10 nM
saporin,influence on cell viability,[6],do not or hardly have any influence on cell viability
CC(=O)OC1C(C)OC(OC2C(C)OC(OC(=O)[C@]34CCC(C)(C)CC3C3=CCC5[C@@]6(C)CC[C@H](OC7OC(C(=O)O)C(O)C(OC8OCC(O)C(O)C8O)C7OC7OC(CO)C(O)C(O)C7O)[C@@](C)(/C=N/NC(=O)CCCCCN7C(=O)C=CC7=O)C6CC[C@@]5(C)[C@]3(C)C[C@H]4O)C(OC3OC(C)C(OC4OCC(O)C(OC5OC(CO)C(O)C(O)C5O)C4O)C(O)C3O)C2O)C(O)C1OC1OCC(O)C(O)C1O (some centres unmarked) [SO1861-EMCH],concentration above which general toxicity is seen without EGFdianthin,[1]; single compound,> 25.000 nM
same,IC50 cell viability reduction,[1]; titrated + fixed […] EGFdianthin,not affected at all
same,concentration above which general toxicity is seen without EGFdianthin,[2]; single compound,> 25.000 nM
same,concentration above which general toxicity is seen without EGFdianthin,[3]; single compound,> 25.000 nM
